Test results as given in publication PMC11280325, “Design, Synthesis, and Characterization of Novel Thiazolidine-2,4-Dione-Acridine Hybrids as Antitumor Agents” (Molecules, 2024).

Columns and labels:
PATU = test: MTT assay, PATU 8902; format: cell-based, human; conditions: Homo sapiens, PaTu 8902, 48 h, pancreas adenocarcinoma, 48 h incubation
In short: (§1)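 Growth media: RPMI 1640 for HeLa and HCT116, DMEM for A2058 and PATU 8902, each with 10% FBS. After 48 h treatment at 5, 10, 20 or 50 µmol/L, viability was measured by MTT reduction at 540 nm.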

MCF-10A = test: MTT assay, MCF-10A non-cancerous cells; format: cell-based, human; conditions: non-cancerous epithelial breast cells, 48 h incubation
In short: (§2)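 Human MCF-10A breast epithelial and BJ-5ta dermal fibroblast cells seeded 24 h, then exposed to compounds at 5, 10, 20 and 50 µmol/L for 48 h at 37 °C. MTT with SDS solubilization, absorbance 540 nm. IC50 from nonlinear regression, ≥3 independent repeats.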

A2058 = test: MTT assay, A2058; format: cell-based; conditions: Homo sapiens, A2058, 48 h, human melanoma, 48 h incubation
In short: as §1

A2780 = test: MTT assay, A2780; format: cell-based, human; conditions: ovarian adenocarcinoma, 48 h incubation
In short: (§3)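 5–10 × 10^3 cells/well, 24 h attach → compound 5, 10, 20, 50 µmol/L in medium, 48 h → MTT → 10% SDS, 24 h → A540. IC50 by nonlinear regression, n ≥ 3.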

HeLa = test: MTT assay, HeLa; format: cell-based, human; conditions: cervical adenocarcinoma, 48 h incubation
In short: as §1

A549 = test: MTT assay, A549; format: cell-based, human; conditions: lung adenocarcinoma, 48 h incubation
In short: as §3

Bj-5ta = test: MTT assay, BJ-5ta non-cancerous fibroblasts; format: cell-based, human; conditions: Homo sapiens, Fibroblast, 48 h, non-cancerous dermal fibroblasts, 48 h incubation
In short: as §2

Hep G2 = test: MTT assay, Hep G2; format: cell-based, human; conditions: hepatocellular carcinoma, 48 h incubation
In short: as §3

HCT116 = test: MTT assay, HCT116; format: cell-based, human; conditions: colorectal adenocarcinoma, 48 h incubation
In short: as §1

COc1cc(/C=C2\SC(=O)N(Cc3c4ccccc4nc4ccccc34)C2=O)ccc1OCC(=O)Nc1ccc([N+](=O)[O-])cc1 [Compound 12d, 2-(4-{[(5Z)-3-[(Acridin-9-yl)methyl]-2,4-dioxo-1,3-thiazolidin-5-ylidene]methyl}-2-methoxyphenoxy)-N-(4-nitrophenyl)acetamide]
IC50 (PATU): > 50 µM | IC50 (MCF-10A; Homo sapiens, MCF-10A, 48 h): > 50 µM | IC50 (A2058): > 50 µM | IC50 (A2780; Homo sapiens, A2780, 48 h): > 50 µM | IC50 (HeLa): 9.4 ± 0.3 µM | IC50 (A549; Homo sapiens, A549, 48 h): 31.2 ± 1.1 µM | IC50 (Bj-5ta): > 50 µM | IC50 (Hep G2; Homo sapiens, HepG2, 48 h): > 50 µM | IC50 (HCT116; Homo sapiens, HCT-116, 48 h): 14.6 ± 1.7 µM | melting point: 288 to 290 °C

O=C(COc1ccc(/C=C2\SC(=O)N(Cc3c4ccccc4nc4ccccc34)C2=O)cc1)Nc1ccccc1 [Compound 7a, 2-(4-{[(5Z)-3-[(Acridin-9-yl)methyl]-2,4-dioxo-1,3-thiazolidin-5-ylidene]methyl}phenoxy)-N-phenylacetamide]
IC50 (PATU): > 50 µM | IC50 (MCF-10A): > 50 µM | IC50 (A2058): > 50 µM | IC50 (A2780; Homo sapiens, A2780, 48 h): > 50 µM | IC50 (HeLa; Homo sapiens, HeLa, 48 h): 24.3 ± 3.8 µM | IC50 (A549): > 50 µM | IC50 (Bj-5ta): > 50 µM | IC50 (Hep G2; Homo sapiens, HepG2, 48 h): > 50 µM | IC50 (HCT116): 37.6 ± 4.2 µM | melting point: 249 to 250 °C

COc1cc(/C=C2\SC(=O)N(Cc3cccc4cc5ccccc5nc34)C2=O)ccc1OCC(=O)Nc1ccccc1C(F)(F)F [Compound 13e, 2-(4-{[(5Z)-3-[(Acridin-4-yl)methyl]-2,4-dioxo-1,3-thiazolidin-5-ylidene]methyl}-2-methoxyphenoxy)-N-[2-(trifluoromethyl)phenyl]acetamide]
IC50 (PATU): > 50 µM | IC50 (MCF-10A; Homo sapiens, MCF-10A, 48 h): 14.9 ± 0.16 µM | IC50 (A2058): 35.2 ± 2.87 µM | IC50 (A2780; Homo sapiens, A2780, 48 h): > 50 µM | IC50 (HeLa; Homo sapiens, HeLa, 48 h): 26.7 ± 3.8 µM | IC50 (A549; Homo sapiens, A549, 48 h): > 50 µM | IC50 (Bj-5ta): > 50 µM | IC50 (Hep G2; Homo sapiens, HepG2, 48 h): > 50 µM | IC50 (HCT116; Homo sapiens, HCT-116, 48 h): 9.9 ± 1.7 µM | melting point: 217 to 218 °C

O=C(COc1ccc(/C=C2\SC(=O)N(Cc3cccc4cc5ccccc5nc34)C2=O)cc1)Nc1ccccc1 [Compound 8a, 2-(4-{[(5Z)-3-[(Acridin-4-yl)methyl]-2,4-dioxo-1,3-thiazolidin-5-ylidene]methyl}phenoxy)-N-phenylacetamide]
IC50 (PATU): > 50 µM | IC50 (MCF-10A; Homo sapiens, MCF-10A, 48 h): > 50 µM | IC50 (A2058): > 50 µM | IC50 (A2780; Homo sapiens, A2780, 48 h): > 50 µM | IC50 (HeLa): 21.1 ± 7.2 µM | IC50 (A549; Homo sapiens, A549, 48 h): > 50 µM | IC50 (Bj-5ta): > 50 µM | IC50 (Hep G2; Homo sapiens, HepG2, 48 h): > 50 µM | IC50 (HCT116; Homo sapiens, HCT-116, 48 h): 26.9 ± 1.85 µM | melting point: 258 to 259 °C (dec.)

COc1cc(/C=C2\SC(=O)N(Cc3cccc4cc5ccccc5nc34)C2=O)ccc1OCC(=O)Nc1cc(OC)c(OC)c(OC)c1 [Compound 13c, 2-(4-{[(5Z)-3-[(Acridin-4-yl)methyl]-2,4-dioxo-1,3-thiazolidin-5-ylidene]methyl}-2-methoxyphenoxy)-N-(3,4,5-trimethoxyphenyl)acetamide]
IC50 (PATU): > 50 µM | IC50 (MCF-10A; Homo sapiens, MCF-10A, 48 h): > 50 µM | IC50 (A2058): 42.5 ± 0.25 µM | IC50 (A2780; Homo sapiens, A2780, 48 h): > 50 µM | IC50 (HeLa): 44.2 ± 4.1 µM | IC50 (A549): > 50 µM | IC50 (Bj-5ta): > 50 µM | IC50 (Hep G2): > 50 µM | IC50 (HCT116): 23.1 ± 5.7 µM | melting point: 228 to 230 °C (dec.)

COc1cc(/C=C2\SC(=O)N(Cc3cccc4cc5ccccc5nc34)C2=O)ccc1OCC(=O)Nc1cccc(C(F)(F)F)c1 [Compound 13f, 2-(4-{[(5Z)-3-[(Acridin-4-yl)methyl]-2,4-dioxo-1,3-thiazolidin-5-ylidene]methyl}-2-methoxyphenoxy)-N-[3-(trifluoromethyl)phenyl]acetamide]
IC50 (PATU): > 50 µM | IC50 (MCF-10A; Homo sapiens, MCF-10A, 48 h): 28.9 ± 5.6 µM | IC50 (A2058): 31.9 ± 4.1 µM | IC50 (A2780; Homo sapiens, A2780, 48 h): > 50 µM | IC50 (HeLa; Homo sapiens, HeLa, 48 h): 21.8 ± 6.4 µM | IC50 (A549; Homo sapiens, A549, 48 h): > 50 µM | IC50 (Bj-5ta): > 50 µM | IC50 (Hep G2; Homo sapiens, HepG2, 48 h): > 50 µM | IC50 (HCT116): 36.3 ± 4.6 µM | melting point: 203 to 205 °C

O=C(COc1ccc(/C=C2\SC(=O)N(Cc3cccc4cc5ccccc5nc34)C2=O)cc1)Nc1ccccc1C(F)(F)F [Compound 8e, 2-(4-{[(5Z)-3-[(Acridin-4-yl)methyl]-2,4-dioxo-1,3-thiazolidin-5-ylidene]methyl}phenoxy)-N-[2-(trifluoromethyl)phenyl]acetamide]
IC50 (PATU): > 50 µM | IC50 (MCF-10A; Homo sapiens, MCF-10A, 48 h): > 50 µM | IC50 (A2058): > 50 µM | IC50 (A2780; Homo sapiens, A2780, 48 h): > 50 µM | IC50 (HeLa; Homo sapiens, HeLa, 48 h): 43.3 ± 5.2 µM | IC50 (A549; Homo sapiens, A549, 48 h): > 50 µM | IC50 (Bj-5ta): > 50 µM | IC50 (Hep G2; Homo sapiens, HepG2, 48 h): > 50 µM | IC50 (HCT116): 24.3 ± 3.8 µM | melting point: 205 to 206 °C (dec.)

COc1cc(NC(=O)COc2ccc(/C=C3\SC(=O)N(Cc4cccc5cc6ccccc6nc45)C3=O)cc2OC)cc(OC)c1 [Compound 13b, 2-(4-{[(5Z)-3-[(Acridin-4-yl)methyl]-2,4-dioxo-1,3-thiazolidin-5-ylidene]methyl}-2-methoxyphenoxy)-N-(3,5-dimethoxyphenyl)acetamide]
IC50 (PATU): > 50 µM | IC50 (MCF-10A; Homo sapiens, MCF-10A, 48 h): 43.6 ± 3.3 µM | IC50 (A2058): 34.4 ± 2.45 µM | IC50 (A2780; Homo sapiens, A2780, 48 h): > 50 µM | IC50 (HeLa; Homo sapiens, HeLa, 48 h): 25.7 ± 3.45 µM | IC50 (A549; Homo sapiens, A549, 48 h): 38.9 ± 2.1 µM | IC50 (Bj-5ta): 41.7 ± 0.8 µM | IC50 (Hep G2; Homo sapiens, HepG2, 48 h): > 50 µM | IC50 (HCT116; Homo sapiens, HCT-116, 48 h): 44.7 ± 4.1 µM | melting point: 222 to 224 °C

COc1cc(NC(=O)COc2ccc(/C=C3\SC(=O)N(Cc4cccc5cc6ccccc6nc45)C3=O)cc2)cc(OC)c1 [Compound 8b, 2-(4-{[(5Z)-3-[(Acridin-4-yl)methyl]-2,4-dioxo-1,3-thiazolidin-5-ylidene]methyl}phenoxy)-N-(3,5-dimethoxyphenyl)acetamide]
IC50 (PATU): > 50 µM | IC50 (MCF-10A; Homo sapiens, MCF-10A, 48 h): > 50 µM | IC50 (A2058): > 50 µM | IC50 (A2780; Homo sapiens, A2780, 48 h): > 50 µM | IC50 (HeLa): 12 ± 2.8 µM | IC50 (A549; Homo sapiens, A549, 48 h): > 50 µM | IC50 (Bj-5ta): > 50 µM | IC50 (Hep G2; Homo sapiens, HepG2, 48 h): > 50 µM | IC50 (HCT116; Homo sapiens, HCT-116, 48 h): > 50 µM | melting point: 168 to 169 °C (dec.)

O=C(COc1ccc(/C=C2\SC(=O)N(Cc3c4ccccc4nc4ccccc34)C2=O)cc1)Nc1ccc([N+](=O)[O-])cc1 [Compound 7d, 2-(4-{[(5Z)-3-[(Acridin-9-yl)methyl]-2,4-dioxo-1,3-thiazolidin-5-ylidene]methyl}phenoxy)-N-(4-nitrophenyl)acetamide]
IC50 (PATU): > 50 µM | IC50 (MCF-10A; Homo sapiens, MCF-10A, 48 h): > 50 µM | IC50 (A2058): > 50 µM | IC50 (A2780; Homo sapiens, A2780, 48 h): > 50 µM | IC50 (HeLa): 20.1 ± 2.95 µM | IC50 (A549; Homo sapiens, A549, 48 h): > 50 µM | IC50 (Bj-5ta): > 50 µM | IC50 (Hep G2; Homo sapiens, HepG2, 48 h): > 50 µM | IC50 (HCT116): > 50 µM | melting point: 293 to 294 °C

COc1cc(NC(=O)COc2ccc(/C=C3\SC(=O)N(Cc4c5ccccc5nc5ccccc45)C3=O)cc2OC)cc(OC)c1 [Compound 12b, 2-(4-{[(5Z)-3-[(Acridin-9-yl)methyl]-2,4-dioxo-1,3-thiazolidin-5-ylidene]methyl}-2-methoxyphenoxy)-N-(3,5-dimethoxyphenyl)acetamide]
IC50 (PATU): > 50 µM | IC50 (MCF-10A; Homo sapiens, MCF-10A, 48 h): 15.6 ± 2.6 µM | IC50 (A2058): > 50 µM | IC50 (A2780): > 50 µM | IC50 (HeLa; Homo sapiens, HeLa, 48 h): 7.3 ± 3.4 µM | IC50 (A549; Homo sapiens, A549, 48 h): 34.5 ± 5.4 µM | IC50 (Bj-5ta): > 50 µM | IC50 (Hep G2; Homo sapiens, HepG2, 48 h): > 50 µM | IC50 (HCT116): 10.2 ± 2.1 µM | melting point: 264 to 265 °C

COc1cc(/C=C2\SC(=O)N(Cc3cccc4cc5ccccc5nc34)C2=O)ccc1OCC(=O)Nc1cc(C(F)(F)F)cc(C(F)(F)F)c1 [Compound 13g, 2-(4-{[(5Z)-3-[(Acridin-4-yl)methyl]-2,4-dioxo-1,3-thiazolidin-5-ylidene]methyl}-2-methoxyphenoxy)-N-[3,5-bis(trifluoromethyl)phenyl]acetamide]
IC50 (PATU): > 50 µM | IC50 (MCF-10A; Homo sapiens, MCF-10A, 48 h): > 50 µM | IC50 (A2058): > 50 µM | IC50 (A2780; Homo sapiens, A2780, 48 h): > 50 µM | IC50 (HeLa; Homo sapiens, HeLa, 48 h): 17.7 ± 2.9 µM | IC50 (A549; Homo sapiens, A549, 48 h): > 50 µM | IC50 (Bj-5ta): > 50 µM | IC50 (Hep G2; Homo sapiens, HepG2, 48 h): > 50 µM | IC50 (HCT116): 24.9 ± 3.5 µM | melting point: 249 to 250 °C
